Measurements as given in PubChem BioAssay (NCI).
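96-well plates; 48 h exposure; 5 concentrations. Endpoints by linear interpolation between flanking doses. Not reached: highest tested concentration assigned. The concentration for full growth arrest is given as TGI.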

Experiments:
Experiment in all cases: NCI-60 cell line screen, 48 h
[1] = tested on: SN12C renal
[2] = tested on: M14 melanoma
[3] = tested on: HCT-15 colon
[4] = tested on: CCRF-CEM leukemia
[5] = tested on: MALME-3M melanoma
[6] = tested on: SK-MEL-2 melanoma
[7] = tested on: MDA-N
[8] = tested on: NCI-H226 lung
[9] = tested on: 786-0 renal
[10] = tested on: HS 578T breast
[11] = tested on: SNB-75 CNS

## CCCC(=O)OCOC(=O)N(C)N=Nc1ccc(C(=O)OCC)cc1
[1]
  TGI: 76.7 µM
[2]
  TGI: > 100 µM
[3]
  TGI: 75.4 µM
[4]
  TGI: > 100 µM
[5]
  TGI: 43.3 µM
[6]
  TGI: 36.3 µM
[7]
  TGI: > 100 µM
[8]
  TGI: > 100 µM
[9]
  TGI: 59.8 µM
[10]
  TGI: 85.7 µM
[11]
  TGI: > 100 µM

## Cc1ccc(S(=O)(=O)NC(=O)Nc2cc(Cl)c(S(N)(=O)=O)cc2S(N)(=O)=O)cc1
[1]
  TGI: > 100 µM
[2]
  TGI: > 100 µM
[3]
  TGI: > 100 µM
[4]
  TGI: > 100 µM
[5]
  TGI: > 100 µM
[6]
  TGI: > 100 µM
[7]
  TGI: > 100 µM
[8]
  TGI: > 100 µM
[9]
  TGI: > 100 µM
[10]
  TGI: > 100 µM
[11]
  TGI: > 100 µM

## C/C(=N\NC(=S)Nc1ccc([N+](=O)[O-])cc1)c1nc2ncccc2[nH]1
[1]
  TGI: 56.6 µM
[2]
  TGI: 6.37 µM
[3]
  TGI: 9.04 µM
[4]
  TGI: 12.4 µM
[5]
  TGI: 18.5 µM
[6]
  TGI: 4.06 µM
[7]
  TGI: > 100 µM
[8]
  TGI: 1.87 µM
[9]
  TGI: 11.6 µM
[10]
  TGI: 6.51 µM
[11]
  TGI: 4.1 µM

## Nc1c(Cl)cc(-c2nc3ccccc3s2)cc1Cl
[1]
  TGI: > 100 µM
[2]
  TGI: > 100 µM
[3]
  TGI: > 100 µM
[4]
  TGI: > 100 µM
[5]
  TGI: > 100 µM
[6]
  TGI: > 100 µM
[7]
  TGI: > 100 µM
[8]
  TGI: > 100 µM
[9]
  TGI: > 100 µM
[10]
  TGI: > 100 µM
[11]
  TGI: > 100 µM

## FC(F)(F)c1cccnc1Sc1nc2ccccc2s1
[1]
  TGI: > 100 µM
[2]
  TGI: > 100 µM
[3]
  TGI: > 100 µM
[4]
  TGI: > 100 µM
[5]
  TGI: > 100 µM
[6]
  TGI: > 100 µM
[7]
  TGI: > 100 µM
[8]
  TGI: > 100 µM
[9]
  TGI: > 100 µM
[10]
  TGI: > 100 µM
[11]
  TGI: > 100 µM

## Nc1ccc(-c2nc3ccc(F)cc3s2)cc1I
[1]
  TGI: > 100 µM
[2]
  TGI: > 100 µM
[3]
  TGI: > 100 µM
[4]
  TGI: > 100 µM
[5]
  TGI: > 100 µM
[6]
  TGI: > 100 µM
[7]
  TGI: > 100 µM
[8]
  TGI: > 100 µM
[9]
  TGI: > 100 µM
[10]
  TGI: > 100 µM
[11]
  TGI: > 76.1 µM

## O=[N+]([O-])C(=C/c1cccc2ccccc12)/C(=C\c1cccc2ccccc12)[N+](=O)[O-]
[1]
  TGI: 6.55 µM
[2]
  TGI: 11.3 µM
[3]
  TGI: 3.95 µM
[4]
  TGI: 4.77 µM
[5]
  TGI: 5.49 µM
[6]
  TGI: 55.3 µM
[7]
  TGI: 8.25 µM
[8]
  TGI: 13.7 µM
[9]
  TGI: 3.72 µM
[10]
  TGI: 17.1 µM
[11]
  TGI: 21.8 µM

## Cc1cccc(CNc2ncnc3[nH]ncc23)c1
[1]
  TGI: > 100 µM
[2]
  TGI: > 100 µM
[3]
  TGI: > 100 µM
[4]
  TGI: > 100 µM
[5]
  TGI: > 100 µM
[6]
  TGI: > 100 µM
[7]
  TGI: > 100 µM
[8]
  TGI: > 100 µM
[9]
  TGI: > 100 µM
[10]
  TGI: > 100 µM
[11]
  TGI: > 100 µM

## C[C@H]1C[C@H]2[C@@H]3CCC4=CC(=O)C=C[C@]4(C)C3=CC[C@]2(C)[C@@]1(O)C(=O)CO
[1]
  TGI: > 100 µM
[2]
  TGI: > 100 µM
[3]
  TGI: > 100 µM
[4]
  TGI: > 100 µM
[5]
  TGI: > 100 µM
[6]
  TGI: > 100 µM
[7]
  TGI: > 100 µM
[8]
  TGI: > 100 µM
[9]
  TGI: > 100 µM
[10]
  TGI: > 100 µM
[11]
  TGI: > 100 µM

## COc1ccc(NC(=O)C(=O)Cc2nc3ccc(C(=O)c4ccccc4)cc3[nH]c2=O)c([N+](=O)[O-])c1
[1]
  TGI: > 100 µM
[2]
  TGI: > 100 µM
[3]
  TGI: > 100 µM
[4]
  TGI: 61.4 µM
[5]
  TGI: > 100 µM
[6]
  TGI: > 100 µM
[7]
  TGI: > 100 µM
[8]
  TGI: 39.8 µM
[9]
  TGI: > 100 µM
[10]
  TGI: > 100 µM
[11]
  TGI: 90.2 µM

## O=c1n(-c2ccccc2)c(=O)n2c(-c3ccccc3)c(-c3ccccc3)n12
[1]
  TGI: > 100 µM
[2]
  TGI: > 100 µM
[3]
  TGI: > 100 µM
[4]
  TGI: > 100 µM
[5]
  TGI: > 100 µM
[6]
  TGI: > 100 µM
[7]
  TGI: > 100 µM
[8]
  TGI: > 100 µM
[9]
  TGI: > 100 µM
[10]
  TGI: > 100 µM
[11]
  TGI: > 100 µM

## COC(=O)[C@@]1(NC(=O)C(CC(=O)OC(C)(C)C)NC(=O)OC(C)(C)C)C[C@H]1C (some centres not stated)
[1]
  TGI: > 100 µM
[2]
  TGI: > 100 µM
[3]
  TGI: > 100 µM
[4]
  TGI: > 100 µM
[5]
  TGI: > 100 µM
[6]
  TGI: > 100 µM
[7]
  TGI: > 100 µM
[8]
  TGI: > 100 µM
[9]
  TGI: > 100 µM
[10]
  TGI: > 100 µM
[11]
  TGI: > 100 µM

## O/N=C1/CCCc2nonc21
[1]
  TGI: > 100 µM
[2]
  TGI: > 100 µM
[3]
  TGI: > 100 µM
[4]
  TGI: > 100 µM
[5]
  TGI: > 100 µM
[6]
  TGI: > 100 µM
[7]
  TGI: > 100 µM
[8]
  TGI: > 100 µM
[9]
  TGI: > 100 µM
[10]
  TGI: > 100 µM
[11]
  TGI: > 100 µM

## S=C(N/N=C/c1ccccn1)N1CCCCCC1
[1]
  TGI: 0.359 µM
[2]
  TGI: 0.251 µM
[3]
  TGI: > 33.5 µM
[4]
  TGI: 0.393 µM
[5]
  TGI: 42.4 µM
[6]
  TGI: 24.8 µM
[7]
  TGI: > 48.9 µM
[8]
  TGI: 1.94 µM
[9]
  TGI: 1.22 µM
[10]
  TGI: > 100 µM
[11]
  TGI: 0.987 µM

## Cc1ccc(S(=O)(=O)N2CC(CCN)c3ccccc32)cc1 (configuration not stated)
[1]
  TGI: 10.7 µM
[2]
  TGI: 8.4 µM
[3]
  TGI: > 100 µM
[4]
  TGI: > 100 µM
[5]
  TGI: 17.6 µM
[6]
  TGI: 13.4 µM
[7]
  TGI: 11 µM
[8]
  TGI: 11.6 µM
[9]
  TGI: 14.7 µM
[10]
  TGI: 54.5 µM
[11]
  TGI: 26.5 µM

## O=C1C=C(C2=C(C3=CC(=O)c4ccccc4C3=O)C(=O)c3ccccc3C2=O)C(=O)c2ccccc21
[1]
  TGI: 16.5 µM
[2]
  TGI: 22.5 µM
[3]
  TGI: 28.9 µM
[4]
  TGI: 1.43 µM
[5]
  TGI: 4.82 µM
[6]
  TGI: 42.4 µM
[7]
  TGI: 5.65 µM
[8]
  TGI: 29.9 µM
[9]
  TGI: 12.6 µM
[10]
  TGI: 40 µM
[11]
  TGI: 35.3 µM

## CNC(=O)CCCNC(=O)CCCC(=O)OC
[1]
  TGI: > 100 µM
[2]
  TGI: > 100 µM
[3]
  TGI: > 100 µM
[4]
  TGI: > 100 µM
[5]
  TGI: > 100 µM
[6]
  TGI: > 100 µM
[7]
  TGI: > 100 µM
[8]
  TGI: > 100 µM
[9]
  TGI: > 100 µM
[10]
  TGI: > 100 µM
[11]
  TGI: > 100 µM
